Measured values taken from patent US7388072B2, “MAGE peptides presented by HLA class II molecules” (priority 2001, dated 2008).

Tests used:
CD4+ T cell clone 2 = experiment: Recognition assay with peptides: IFN-γ production (ELISA) by CD4+ T cell clone 2 co-cultured with peptide-pulsed EBV-B cells; format: cell-based, human; settings: for IFN-γ production clone 2: 2 h with 5 μg/ml peptide, overnight co-culture
Method: Recognition assays with peptides. Peptides were synthesized on solid phase using Fmoc for transient NH2-terminal protection and were characterized using mass spectrometry. All peptides were >90% pure, as indicated by analytical HPLC. Lyophilized peptides were dissolved at 5 mg/ml in 10 mM acetic acid and 10% DMSO, and stored at −20° C. EBV-B cells were distributed at 20,000 cells per round-bottomed microwell and incubated for 2 h at 37° C. in the presence of the different peptides, the indicated concentrations representing their concentrations during the incubation step. CD4^+ T lymphocytes (5,000) were added in 100 μl of complete IMDM (Gibco BRL) medium supplemented with IL-2 (25 U/ml). Supernatants were harvested after 20 h of co-culture and IFN-γ production was measured by ELISA. The peptides used in FIG. 6 correspond to the MAGE-1260-275, MAGE-2267-282, MAGE-3267-282, MAGE-4268-283, MAGE-6267-282, MAGE-10292-307, MAGE-11270-285, and MAGE-12267-282 protein sequences.
We tested for recognition by each of the three clones autologous EBV-B cells pulsed with a set of peptides of 16 amino acids, overlapping by 12 residues and covering the complete MAGE-3 sequence. DDHK2 EBV-B cells were distributed in microwells (2×10^4 cells) and incubated for 2 h with the indicated concentrations of peptides. 5×10^3 cells from each autologous CD4^+ T cell clone were added and the presence of IFN-γ in the supernatant was measured by ELISA after overnight co-culture. The results shown in FIG. 6 represent the average of triplicate co-cultures.

DR3 = biological target: T1, DR3 (Homo sapiens, UniProt P01903+P01911, A100K/A102G/A103R/A169T/F55Y/I96L/K41T/L162R/M171V/P40S/Q125H/Q178H/Q39Y/R42S/S66N/T106N/T262R/W38E/Y61H); experiment: HLA-DR peptide binding assay (competition), DR3
T1 construct: endogenous in cells

DR11 = experiment: HLA-DR peptide binding assay (competition), DR11; parameters: species or system human

Structure (SMILES): CC(C)C[C@H](NC(=O)[C@H](C)NC(=O)[C@H](CCCNC(=N)N)NC(=O)[C@@H]1CCCN1C(=O)CNC(=O)[C@H](Cc1c[nH]c2ccccc12)NC(=O)[C@H](CC(C)C)NC(=O)[C@H](Cc1ccccc1)NC(=O)[C@H](CCC(=O)O)NC(=O)[C@H](Cc1ccc(O)cc1)NC(=O)[C@H](CS)NC(=O)[C@H](C)N)C(=O)N[C@H](C(=O)N[C@@H](CCC(=O)O)C(=O)N[C@H](C(=O)N[C@@H](CO)C(=O)O)[C@@H](C)O)C(C)C
- IFN-γ production clone 2 (CD4+ T cell clone 2; EBV-B cell line DDHK2 (DR1 DR15 DR51, DR1 positive)): >4,000 pg/ml
- IFN-γ production clone 2 (CD4+ T cell clone 2; EBV-B cell line LB650 (DR7 DR15 DR51 DR53, DR1 negative)): 160 pg/mL
- IFN-γ production clone 2 (CD4+ T cell clone 2; EBV-B cell line LB831 (DR1 DR7 DR53, DR1 positive)): 1,418 pg/ml
- IFN-γ production clone 2 (CD4+ T cell clone 2; EBV-B cell line LB1158 (DR1 DR13 DR52, DR1 positive)): 2,029 pg/ml
- IFN-γ production clone 2 (CD4+ T cell clone 2; EBV-B cell line LB1856 (DR15, DR1 negative)): 187 pg/mL
- IFN-γ production clone 2 (CD4+ T cell clone 2; EBV-B cell line LB1870 (DR15 DR53 DR7, DR1 negative)): 104 pg/mL
- IFN-γ production clone 2 (CD4+ T cell clone 2; EBV-B cell line LB2095 (DR13 DR15 DR51 DR52, DR1 negative)): 172 pg/mL
- IFN-γ production clone 2 (CD4+ T cell clone 2; EBV-B cell line LB2138 (DR1 DR13, DR1 positive)): 2,046 pg/ml
- production of IFN-γ by clone 2 stimulated by peptide-pulsed autologous EBV-B cells (CD4+ T cell clone 2; FIG. 6, set of 16 amino acid peptides overlapping by 12 residues): stimulated the production of IFN-γ
- recognition by clone 2 of peptide-loaded autologous EBV-B cells in the presence of anti-HLA-DR, -DP or -DQ antibodies (CD4+ T cell clone 2; data not shown): abolished by an anti-HLA-DR antibody, but not by antibodies against HLA-DP or HLA-DQ
- binding to purified HLA-DR molecules (in words) (DR3; competition assay): No binding was observed
- IC50 (DR3; competition with biotinylated MT 2-16 100 nM, pH 4.5, read-out: IC50 (nM) of MAGE-3267-282): > 10000 nM
- binding to purified HLA-DR molecules (in words) (DR11; competition assay): bound
- IC50 (DR11; competition with biotinylated HA 306-318 20 nM, pH 5, ± standard deviation, read-out: IC50 (nM) of MAGE-3267-282): 150 nM
- Ratios IC50 MAGE-3/IC50 reference (DR11; ratio lower than 10 = high affinity, higher than 10 = intermediate binder): 6
